We go through 15 molecules from PubChem BioAssay (NCI).

Test systems include CAKI-1 renal; COLO 205 colon; HCT-116 colon; HL-60(TB) leukemia; HOP-62 NSCLC; KM12 colon; NCI-H226 lung; SNB-75 CNS; U251 CNS; HS 578T breast.
What all share (assay): NCI tumour cell line growth inhibition, 48 h

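Exposure lasted 48 hours, with cells grown in 96-well plates and compounds tested at five concentrations. GI50: concentration for 50% inhibition of growth. TGI is the concentration that stops growth completely.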

For `CCOC(=O)CN(CC)C(=O)NC12CC3CC(CC(C3)C1)C2`, the TGI in the test on CAKI-1 renal was 483 µM; in the test with COLO 205 colon, 270 µM; in the test on HCT-116 colon it was 522 µM; in the test on HL-60(TB) leukemia, 348 µM; with HOP-62 NSCLC, 602 µM; with KM12 colon it was greater than 750 µM. The TGI is 480 µM with NCI-H226 lung, 316 µM in the test on SNB-75 CNS and greater than 536 µM in the test on U251 CNS.
As to `Cc1ccc2c(c1)CC1(Cc3cc(C)ccc3C1=O)C2=O`, the TGI in the test with CAKI-1 renal, with HCT-116 colon, with HL-60(TB) leukemia, in the test on HOP-62 NSCLC, in the test with HS 578T breast and with SNB-75 CNS was greater than 100 µM throughout. Besides, the TGI in the test on U251 CNS is greater than 100 µM.
In the case of `NS(=O)(=O)c1ccc(Nc2c3ccccc3nc3c(C(=O)NC(CO)(CO)CO)cccc23)cc1`, the TGI with CAKI-1 renal came to 0.525 µM; in the test with COLO 205 colon it was 0.175 µM; in the test on HCT-116 colon, 0.327 µM; in the test on HL-60(TB) leukemia, 0.642 µM; in the test on HOP-62 NSCLC it was 0.433 µM; in the test on HS 578T breast it was 0.44 µM. Further, the TGI with KM12 colon was 0.309 µM; in the test with NCI-H226 lung, 0.315 µM; with U251 CNS, 0.457 µM.
For `O=C1C=C2SC3C[C@@]24CC1(O)[N+]1=c2c4c(c(O)c4c2=C(C=N4)CC1)N3`, the TGI in the test with CAKI-1 renal turned out to be 4 µM; with COLO 205 colon, 0.332 µM; in the test on HCT-116 colon, 0.492 µM; in the test on HL-60(TB) leukemia, 0.534 µM; with HOP-62 NSCLC, 3.24 µM; with KM12 colon it was 2.91 µM. Moreover, the TGI in the test with NCI-H226 lung came out at 3.44 µM; in the test on SNB-75 CNS, 3.23 µM; with U251 CNS it was 3.14 µM.
As to `Cc1ccc(-c2ccc3c(c2)Sc2ccccc2O3)n1C`, the TGI in the test with CAKI-1 renal is greater than 73.1 µM; with COLO 205 colon, 2.12 µM; in the test with HCT-116 colon it was greater than 100 µM; in the test with HL-60(TB) leukemia it was 0.261 µM; in the test on HOP-62 NSCLC, greater than 100 µM; with HS 578T breast it was greater than 100 µM. In addition, the values for the TGI in the test with KM12 colon, in the test with NCI-H226 lung and in the test with U251 CNS were greater than 43.2 µM, greater than 100 µM and greater than 100 µM, respectively.
As for `COC(=O)c1sc2c(c1C(=O)OC)C(=Nc1ccc(OC)cc1)SC2=Nc1ccc(OC)cc1`, the TGI in the test on CAKI-1 renal stood at 5.84 µM; in the test with COLO 205 colon it was 1.31 µM; with HCT-116 colon, 1.58 µM; in the test on HL-60(TB) leukemia, 0.552 µM; in the test on HOP-62 NSCLC, 2.23 µM; with KM12 colon it was 3.03 µM. Further, the figures for the TGI in the test on NCI-H226 lung, in the test with SNB-75 CNS and in the test on U251 CNS were 3.55 µM, 1.24 µM and 1.03 µM, respectively.
As for `C=CC[PH+](c1ccccc1)c1ccccc1.C=CC[PH+](c1ccccc1)c1ccccc1.[Pt+2].[S-]c1nc2ccccc2[nH]1.[S-]c1nc2ccccc2[nH]1`, the GI50 is 2.54 µM in the test on CAKI-1 renal; 2.02 µM in the test on COLO 205 colon; 2.51 µM in the test with HL-60(TB) leukemia; 1.95 µM in the test with NCI-H226 lung; 1.2 µM in the test on SNB-75 CNS. Also, the TGI turned out to be 12.8 µM in the test on CAKI-1 renal; 6.56 µM with COLO 205 colon; 7.32 µM with HL-60(TB) leukemia; 4.48 µM with NCI-H226 lung; 3.89 µM with SNB-75 CNS.
Turning to `C=CCSC1=N/C(=C\c2ccc(C)cc2)C(=O)N1CC=C`, the TGI in the test with CAKI-1 renal was greater than 100 µM; with COLO 205 colon, 42 µM; in the test on HCT-116 colon, 67.4 µM; in the test with HL-60(TB) leukemia, 28.1 µM; with HOP-62 NSCLC it was greater than 100 µM; in the test on HS 578T breast, greater than 100 µM. Besides, the TGI with KM12 colon amounted to 69.1 µM; with U251 CNS it was 57.1 µM.
For `CN(C)CCCn1c(-c2ccc(Br)cc2)csc1=Nc1ccccc1`, the TGI is 41 µM in the test with CAKI-1 renal; greater than 100 µM with HL-60(TB) leukemia; 26.4 µM in the test with HOP-62 NSCLC; 26.4 µM in the test on KM12 colon; 27.3 µM with NCI-H226 lung; 29.8 µM in the test on SNB-75 CNS. Further, the TGI in the test with U251 CNS was greater than 100 µM.
Take `COc1ccc(C(CC(=O)c2cccs2)C(=O)c2ccc3c(c2)OCO3)cc1` (stereo unspecified): the TGI in the test on CAKI-1 renal, with COLO 205 colon, with HCT-116 colon, in the test with HL-60(TB) leukemia, with HOP-62 NSCLC and in the test with HS 578T breast was greater than 100 µM each time. For the same molecule, the TGI in the test on KM12 colon, with SNB-75 CNS and with U251 CNS was greater than 100 µM in each case.
As to `Cc1c(CCCl)c(Cl)n2c(nc3ccccc32)c1C#N`, the TGI was found to be 2.25 µM in the test with CAKI-1 renal; 2.47 µM in the test with COLO 205 colon; 0.891 µM with HCT-116 colon; 0.627 µM with HL-60(TB) leukemia; 4.8 µM with HOP-62 NSCLC; 2.54 µM with KM12 colon. Besides, the TGI in the test with NCI-H226 lung was 2.93 µM; with SNB-75 CNS, 14.1 µM; in the test with U251 CNS it was 2.34 µM.
On to `Cc1nc2nnc(CCCCCCCCc3nnc4nc(C)[nH]n34)n2[nH]1`, for which the TGI in the test on CAKI-1 renal, in the test on COLO 205 colon, in the test with HCT-116 colon, with HL-60(TB) leukemia, in the test with HOP-62 NSCLC and with KM12 colon was greater than 100 µM throughout. The TGI in the test on NCI-H226 lung, with SNB-75 CNS and with U251 CNS was greater than 100 µM in each case.
On to `CCCOC(=O)CCC(NC(=O)c1ccc(Nc2nc3ccccc3nc2-c2cccs2)cc1)C(=O)OCCC` (stereo unspecified), for which the TGI with CAKI-1 renal, in the test with COLO 205 colon, with HCT-116 colon, in the test with HOP-62 NSCLC, with KM12 colon and in the test on NCI-H226 lung was greater than 100 µM in each case. The molecule further yielded a TGI with U251 CNS greater than 100 µM.
Regarding `CC(NC(CC12CC3CC(CC(C3)C1)C2)C(N)=O)c1ccccc1` (stereo unspecified), the TGI is 61.2 µM with CAKI-1 renal; 28.7 µM with COLO 205 colon; 42.2 µM in the test on HCT-116 colon; 28.4 µM in the test on HL-60(TB) leukemia; greater than 100 µM in the test with HOP-62 NSCLC; 26.1 µM with U251 CNS.
Turning to `c1ccc(-c2cc(-c3ccccc3)nc(-c3ccncc3)c2)cc1`, the TGI in the test on CAKI-1 renal is greater than 100 µM; with COLO 205 colon, greater than 100 µM; in the test on HCT-116 colon, greater than 100 µM; with HL-60(TB) leukemia it was greater than 100 µM; with HOP-62 NSCLC, 55.4 µM; in the test on HS 578T breast, greater than 100 µM. Besides, the TGI with KM12 colon, in the test with NCI-H226 lung and in the test with U251 CNS was greater than 100 µM each time.
